# Marks after values point to notes of the source that are not given here.
# Tests used:
# [1] = test system: Gastric Fistula Rat; experiment: Gastric antisecretory activity in the Gastric Fistula Rat; type: in vivo, Long Evans rats; settings: sc, 95% confidence limits in parentheses
# Experimental: Determination of Gastric Antisecretory Activity in the Gastric Fistula Rat
# Male Long Evans rats weighing about 240-260 grams at the time of cannula implantation are used. […] The fistula components are designed and the operative procedure is carried out exactly as described in the above reference. Post operatively the animals are individually housed in solid bottom cages with sawdust and are allowed food and water ad libitum throughout the entire recovery period. Animals are not used for test purposes for at least 15 days after the operative procedure.
# The animals are fasted but allowed water ad libitum for 20 hours before the testing procedure is to begin. Immediately prior to collection, the cannula is opened and the. stomach washed gently with 30-40 mL of warm saline or distilled water to remove any residual contents. The catheter is then screwed into the cannula in place of the plugging screw and the rat is placed in a clear plastic rectangular cage measuring 40 cm long, 15 cm wide and 13 cm high. The bottom of the cage has a slit approximately 1.5 cm wide and 25 cm long running down the center to accommodate the catheter which hangs through it. In this way the rat is not restricted and can move -freely about the cage during collection periods. The remainder of the assay is carried out as described by Ridley et al. [Research Comm. Chem. Path.
# Gastric secretions collected during the first hour after washing the stomach are discarded as they may be contaminated. For oral evaluation, the catheter is then removed from the cannula and replaced with the plugging screw. Water (2 mL/kg) is administered orally via gastric intubation and the animal is returned to the cage for 45 minutes. After this time the plugging screw is removed and replaced with a catheter to which a small plastic vial has been attached to collect the gastric secretions. A two hour sample is collected (this represents the control secretion), the catheter removed and.replaced with the plugging screw. The test drug is now administered orally in a volume of 2 mL/kg via gastric intubation. Forty-five minutes later the plugging screw is again removed, replaced with the catheter attached to a small plastic vial and another 2 hour sample is collected. The secretions in the second sample are compared to those of the control sample in order to determine thee effects of the test drug.
# When test compounds are to be evaluated parenterally, the animal is injected ip or sc with the test compound vehicle in a volume of 2 mL/kg immediately after discarding the initial 60 minute collection. A two hour sample is collected (control secretion) and the animals are injected either ip or sc with the test compound in a volume of 2 mL/kg. An additional two hour sample is collected and its secretions are compared to those of the control period to determing drug effects.
# The samples are centrifuged in a graduated tube for volume determination. Titratable acidity is measured by titrating a one mL sample to pH 7.0 with 0.02N NaOH, using an Autoburet and an electrometric pH meter (Radiometer). Titratable acid output is calculated in microequivalents by multiplying the volume in milliliters by the acid concentration in milliequivalents per liter.
# Results are expressed as percent inhibition relative to control readings. Dose response curves are constructed and ED50 values are calculated by regression analyses. At least three rats are used at each dosage level and a minimum of three dosage levels are utilized for determination of a dose response curve.
# [2] = test system: Heidenhain Pouch Dog; experiment: Gastric antisecretory activity in the Heidenhain Pouch Dog; type: in vivo, dogs; settings: 95% confidence limits in parentheses; for ED50: Canis lupus familiaris
# Experimental: Determination of Gastric Antisecretory […] in the Heidenhain Pouch Dog Prior to surgery, hematology and blood chemistry profiles are obtained and an assessment made as to the general health of selected female dogs. Dogs are vaccinated with Tissue […]-Moore) and housed in general animal quarters for four weeks' observation so incipient diseases may become apparent. Dogs are fasted with water ad libitum 24 hours prior to surgery. […] Subsequent anesthesia is maintained with methoxy- flurane (Pitman-Moore). A mid-line linea alba incision from xiphoid to umbilicus provides good exposure and ease of closure. The stomach is pulled up into the operative fields the greater curvature stretched out at multiple points and clamps placed along the selected line of incision. The pouch is made from the corpus of the stomach so that true parietal cell juice is obtained. About 30% of the corpus volume is resected. The cannula is made of light-weight, biologically-inert material such as nylon or Delrin with dimensions and attachments after DeVito and […] fJ. Appl. Physiol., 14, 138 (1959)]. Post operatively, dogs are medicated with antibiotics and an analgesic. They are allowed 2-3 months for recovery. Experiments are carried out in the following way: […] The dogs are placed in a sling and a saphenous vein cannulated for drug administration. Histamine as the base (100 μg/kg/hr) and chlorpheniramine maleate (0.25 mg/kg/hr) are infused continuously (in a volume of 6 mL/hr) with a Harvard infusion pump. Ninety minutes' infusion are allowed for the dogs to reach a steady state of acid output. At this time the drug or normal saline (control) is administered concomitantly with the secretagogue in a volume of 0.5 mL/kg over a 30 second period. When oral studies are to be carried out, the drug is administered via gastric gavage in a volume of 5 mL/kg. Infusion of the secretagogue is continued and 15 minute samples of the gastric juice are taken for 4.5 hours. Each sample is measured to the nearest 0.5 mL and titratable acidity is determined by titrating a 1 mL sample to pH 7.0 with 0.2N NaOH, using an Autoburet and an electrometric pH meter '(Radiometer). Titratable acid output is calculated in microequivalents by multiplying the volume in milliliters by the acid concentration in milliequivalents per liter. Results are expressed as percent inhibition relative to control readings. Dose response curves are constructed and ED50 values are calculated by regression analyses. From 3 to 5 dogs are used at each dose level and a minimum of three dosage levels are utilized for determination of a dose response curve.
structure (smiles),measurement,setting,value
Nc1c(NCCCOc2cccc(CN3CCCCC3)c2)c(=O)c1=O [Example 1],ED50,"[1]; Rattus norvegicus, read-out: ED50 sc",0.023 µmol/kg
same,Potency Ratio [cimetidine = 1.0],[1],162 (77-328)*
same,ED50,[2]; INTRAVENOUS,0.024 µmol/kg
same,ED50,[2]; ORAL,0.16 µmol/kg
same,Potency Ratio [cimetidine = 1.0],[2]; INTRAVENOUS,87 (62-117)*
same,Potency Ratio [cimetidine = 1.0],[2]; ORAL,25 (14-40)
